US20100204258A1, “METHODS AND COMPOSITIONS FOR MODULATING INSULIN SECRETION AND GLUCOSE METABOLISM” (The Trustees of Columbia University in the City of New York, priority 2007, published 2010)
“Also recorded” adds a separate entry of the source.

Legend:
Lewis rats [1] = assay: IPGTT with TBZ, emetine and Compound 6 (FIG. 12); assay type: in vivo, rat; conditions: single dose 2-3 mg/kg body weight; for area under the curve from IPGTT: separate experiments
Description: Experimental animals. All animal studies were conducted as described in Example 1. […] Rats received injections of vehicle alone (10% DMSO in saline) or reserpine (in saline). Animals recovered fully before receiving IPGTT. Blood glucose, insulin, glucagon and intraperitoneal glucose tolerance tests measurements. […] The fasting blood glucose (BG) levels of the rats were measured using an Accu-Check blood glucose monitoring system (Roche Diagnostics, Sommerville, N.J.). Intraperitoneal glucose tolerance tests (IPGTT) were performed in 6 hour fasting un-anaesthetized animals. Briefly, after baseline BG measurements, animals received an intraperitoneal (i.p.) injection of 1 gram glucose/kilogram body weight. To minimize stress during the procedure, rats were handled by the same operator during acclimatization and later during weighing and IPGTT. Blood samples (approximately 30 μl) were collected at baseline and then again 15, 30, 45, 60, 90, and 120 minutes following i.p. glucose. BG concentrations were measured immediately on these samples and the remainder processed.

Lewis rats [2] = assay: IPGTT after 2 mg/kg i.v. of VMAT2 ligands (FIG. 10); assay type: in vivo, rat; conditions: 2 mg/kg body weight i.v.; for blood glucose levels during IPGTT: around sixty minutes following glucose challenge; for area under the curve in the IPGTT: following glucose challenge; for blood glucose excursion during IPGTT: vs vehicle (DMSO)
Description: Experimental animals. All animal studies were conducted as described in Example 1.
Anaesthetized rats were administered TBZ, THB, butamol, reserpine, emetine, or Compound 6 at a dose of approximately 2-3 mg/kg body weight by intravenous (i.v.) injection using the penile vein. TBZ, THB, butamol, reserpine, emetine, and Compound 6 were each separately dissolved in neat sterile dimethylsulfoxide (DMSO) and diluted (always more than 10 fold) in sterile saline. Rats received injections of vehicle alone (10% DMSO in saline) or reserpine (in saline). Animals recovered fully before receiving IPGTT.
(§1) Blood glucose, insulin, glucagon and intraperitoneal glucose tolerance tests measurements. Blood samples were collected from a superficial blood vessel in the tails of the rats following 6 hours of fasting between 12:00 noon and 2:00 p.m. The fasting blood glucose (BG) levels of the rats were measured using an Accu-Check blood glucose monitoring system (Roche Diagnostics, Sommerville, N.J.). Intraperitoneal glucose tolerance tests (IPGTT) were performed in 6 hour fasting un-anaesthetized animals. Briefly, after baseline BG measurements, animals received an intraperitoneal (i.p.) injection of 1 gram glucose/kilogram body weight. To minimize stress during the procedure, rats were handled by the same operator during acclimatization and later during weighing and IPGTT. Blood samples (approximately 30 μl) were collected at baseline and then again 15, 30, 45, 60, 90, and 120 minutes following i.p. glucose. BG concentrations were measured immediately on these samples and the remainder processed.

Lewis rats [3] = assay: Intraperitoneal glucose tolerance test (IPGTT) in normal Lewis rats after a single i.v. dose; assay type: in vivo, rat; conditions: 25 μg/gbm, single concentration; data not shown
Description: Experimental animals. All animal studies were reviewed and approved by the Institutional Animal Care and Use Committee (IACUC) at Columbia University's Medical School. All experiments were performed in accordance with the IACUC approved procedures. Normal male Lewis rats (100-400 grams) were obtained from Taconic (Taconic Inc., Germantown, N.Y.) and were housed under conditions of controlled humidity (55±5%), temperature (23±1° C.), and lighting (light on: 06.00-18.00 hours) with free access to standard laboratory rat chow and water. Rats were handled daily to minimize nonspecific stress for more than 7 days before the experiments began. In most experiments, it was necessary to measure blood glucose in fasting animals. For these groups, food was removed at the beginning of the light cycle, 6 hours before glucose levels were measured. Diabetes mellitus was induced by intraperitoneal injection of streptozotocin (Sigma Chemical Co., St. Louis, Mo.) (25 to 50 mg/kg) to animals (100 to 150 grams) that had been fasted 4 hours to enhance the effectiveness of STZ treatment.
The STZ solution was prepared fresh by dissolving it in 0.1 M citrate buffer (pH 5.5) and terminally sterile filtered. Control Lewis age and weight matched rats received a 0.5 ml/kg citrate vehicle alone via intraperitoneal injection. Sixty minutes prior to intraperitoneal glucose tolerance testing (IPGTT), anesthesia of male Lewis rats was induced with isoflurane (3-4% in oxygen) and maintained with 1-2% isoflurane in oxygen. Anaesthetized rats were administered TBZ at the indicated dose by intravenous (i.v.) injection using the penile vein. TBZ was dissolved in neat sterile dimethylsulfoxide (DMSO) and diluted (always more than 10 fold) in sterile saline. Rats received injections of vehicle alone (10% DMSO in saline) or reserpine (in saline). Animals recovered fully before receiving IPGTT.
as §1, with “30,” for “30, 45,”, “glucose administration.” for “glucose.”
Plasma was immediately separated by centrifugation at 3000×g for 15 minutes and then stored at −20° C. until analysis. Insulin and glucagon concentration measurements in rat plasma were performed by ELISA as per the manufacturer's instructions using kits from Linco Research Inc. (St. Charles, Mo.) and Alpco Diagnostics (Salem, N.H.), respectively. To validate the test, saline injections were performed by the same method. […] The area under the IPGTT glucose concentration×time curve (AUCIPGTT) was calculated by the trapezoidal rule. The area under the insulin or glucagon concentration×time curve (AUC INS or AUC GCG) was calculated in a similar manner.

human islets = assay: Glucose-stimulated insulin secretion of purified human cadaveric islets ex vivo; assay type: cell-based; conditions: stimulation by high concentrations of glucose
Description: Human islet tissue and glucose-stimulated insulin secretion. The islet tissue used in these studies was obtained with institutional review board approval. Pancreas digestion and islet isolation were performed using minor modifications of the Edmonton purification protocol. (Shapiro, […] al. “Islet […] in seven patients with type I diabetes mellitus using a glucocortoid-free immunosuppressive regimen.” New England Journal of Medicine 343(4):230-8, (2000)) The determination of islet cell mass, viability, and purity were also performed. Purified islets were cultured in CMRL 1066 culture media with 10% fetal bovine serum at 37° C. in humidified air (5% CO2) for 18 to 24 hours. The human islet insulin secretory response was performed according to a procedure described by the Edmonton group. (Id.) Briefly, after an overnight culture, islets were incubated with either low or high concentrations of glucose for 2 hours at 37° C. and 5% CO2. The supernatant was collected for insulin measurement. Insulin concentrations in these experiments were analyzed with a human insulin enzyme-linked immunosorbent assay (ELISA) kit (ALPCO Insulin ELISA kit, Windham, N.H.). In some experiments TBZ, DTBZ or epinephrine was added to the cultures before glucose stimulation.

| Compound | blood glucose levels during IPGTT (Lewis rats [2]) | area under the curve in the IPGTT (Lewis rats [2]) | blood glucose excursion during IPGTT (Lewis rats [2]) | also measured |
| --- | --- | --- | --- | --- |
| CC[C@H]1CN2CCc3cc(OC)c(OC)cc3[C@@H]2C[C@@H]1C[C@H]1NCCc2cc(OC)c(OC)cc21 [emetine] | returned to control or near normal levels | smaller area under the curve | reduced the blood glucose excursion | blood glucose excursion during IPGTT (Lewis rats [1]): consistently reduced the blood glucose excursion; area under the curve from IPGTT (Lewis rats [1]): consistently suppressed the area under the curve; area under the curve from IPGTT (Lewis rats [1]; listed as emitine): depress the area under the curve |
| CC(C)(C)NCC(O)c1ccc(O)c(CO)c1 (stereo not drawn) [butamol] | returned to control or near normal levels | smaller area under the curve | does not reduce the blood glucose excursion; also recorded: did not reduce the blood glucose excursion | – |
| COC(=O)[C@H]1[C@H]2C[C@@H]3c4[nH]c5cc(OC)ccc5c4CCN3C[C@H]2C[C@@H](OC(=O)c2cc(OC)c(OC)c(OC)c2)[C@@H]1OC [reserpine] | returned to control or near normal levels | smaller area under the curve | reduced the blood glucose excursion | AUC IPGTT relative to untreated controls (Lewis rats [3]): larger AUC IPGTT; blood glucose in IPGTT (Lewis rats [3]): persistent hyperglycemia |
| CNC[C@H](O)c1ccc(O)c(O)c1 [epinephrine, L-epinephrine bitartrate] | – | – | – | insulin secreted by human islets in culture (human islets): inhibited secretion of insulin |
| COc1ccc2c(c1OC)CN1CCc3cc4c(cc3C1C2)OCO4 (stereo not drawn) [THB, tetrahydroberberine] | returned to control or near normal levels | smaller area under the curve | reduced the blood glucose excursion | – |
| COc1cc2c(cc1OC)[C@H]1C[C@@H](O)[C@H](CC(C)C)CN1CC2 [DTBZ, dihydrotetrabenazine] | – | – | – | insulin secreted by human islets in culture (human islets): enhances glucose-stimulated insulin secretion; also recorded: significantly enhanced |
| COc1cc2c(cc1OC)C1CC(N)C(CC(C)C)CN1CC2 (stereo not drawn) [Compound 6, 3-isobutyl-9,10-dimethoxy-2,3,4,6,7,11b-hexahydro-1H-pyrido[2,1-a]isoquinolin-2-amine] | – | – | – | blood glucose excursion during IPGTT (Lewis rats [1]): consistently reduced the blood glucose excursion; area under the curve from IPGTT (Lewis rats [1]): depress the area under the curve; also recorded: consistently suppressed the area under the curve |
